Reference: ChEMBL document CHEMBL5154762, “Design, synthesis, and tumor drug resistance reversal activity of novel hederagenin derivatives modified by nitrogen-containing heterocycles” (Eur J Med Chem, 2022)
Calls of active or inactive are those of the source. The rule behind the calls is not given here.

Assays:
[1] = Cytotoxicity against human KBV cells assessed as decrease in cell survival rate at 10 uM measured after 72 hrs by MTT assay; type: functional; conditions: read-out: Survival
[2] = Cytotoxicity against human KBV cells assessed as decrease in cell survival rate at 10 uM measured after 72 hrs in presence of paclitaxel by MTT assay; type: functional; conditions: read-out: Survival
[3] = Induction of cell cycle arrest in human KBV cells assessed as accumulation at sub-G0 phase measured after 24 hrs by propidium iodide/RNase staining based flow cytometry analysis (reference value: 6.18%); type: functional
[4] = tested on: KBV; assay: Induction of apoptosis in human KBV cells at 10 uM measured after 24 hrs in presence of paclitaxel by flow cytometry analysis; type: functional, cell-based
[5] = tested on: KBV; assay: Induction of cell cycle arrest in human KBV cells assessed as accumulation at G2/M phase measured after 24 hrs by propidium iodide/RNase staining based flow cytometry analysis; type: functional
[6] = Toxicity in BALB/c mouse xenografted with human KBV cells assessed as change in body weight at 10 mg/kg, ip qd administered presence of paclitaxel; type: organism-based; conditions: in vivo
[7] = Antitumor activity against human KBV cells xenografted in BALB/c mouse assessed as tumor suppression rate at 10 mg/kg, ip qd administered in presence of paclitaxel; type: functional
[8] = molecular target: ATP-dependent translocase ABCB1 (Homo sapiens, UniProt P08183); assay: Inhibition of P-glycoprotein mediated Rhodamine-123 efflux in human KBV cells assessed as increase in rhodamine-123 accumulation incubated for 3 hrs in presence of rhodamine-123 by flow cytometry analysis; type: cell-based; conditions: DDE = dose-dependent effect
[9] = Cytotoxicity against human KBV cells assessed as decrease in cell survival rate at 100 nM measured after 72 hrs by MTT assay; type: functional; conditions: read-out: Survival
[10] = Antitumor activity against human KBV cells xenografted in BALB/c mouse assessed as tumor suppression rate at 30 mg/kg administered once every three days; type: functional

ATP-dependent translocase ABCB1, sequence (P08183 whole entry): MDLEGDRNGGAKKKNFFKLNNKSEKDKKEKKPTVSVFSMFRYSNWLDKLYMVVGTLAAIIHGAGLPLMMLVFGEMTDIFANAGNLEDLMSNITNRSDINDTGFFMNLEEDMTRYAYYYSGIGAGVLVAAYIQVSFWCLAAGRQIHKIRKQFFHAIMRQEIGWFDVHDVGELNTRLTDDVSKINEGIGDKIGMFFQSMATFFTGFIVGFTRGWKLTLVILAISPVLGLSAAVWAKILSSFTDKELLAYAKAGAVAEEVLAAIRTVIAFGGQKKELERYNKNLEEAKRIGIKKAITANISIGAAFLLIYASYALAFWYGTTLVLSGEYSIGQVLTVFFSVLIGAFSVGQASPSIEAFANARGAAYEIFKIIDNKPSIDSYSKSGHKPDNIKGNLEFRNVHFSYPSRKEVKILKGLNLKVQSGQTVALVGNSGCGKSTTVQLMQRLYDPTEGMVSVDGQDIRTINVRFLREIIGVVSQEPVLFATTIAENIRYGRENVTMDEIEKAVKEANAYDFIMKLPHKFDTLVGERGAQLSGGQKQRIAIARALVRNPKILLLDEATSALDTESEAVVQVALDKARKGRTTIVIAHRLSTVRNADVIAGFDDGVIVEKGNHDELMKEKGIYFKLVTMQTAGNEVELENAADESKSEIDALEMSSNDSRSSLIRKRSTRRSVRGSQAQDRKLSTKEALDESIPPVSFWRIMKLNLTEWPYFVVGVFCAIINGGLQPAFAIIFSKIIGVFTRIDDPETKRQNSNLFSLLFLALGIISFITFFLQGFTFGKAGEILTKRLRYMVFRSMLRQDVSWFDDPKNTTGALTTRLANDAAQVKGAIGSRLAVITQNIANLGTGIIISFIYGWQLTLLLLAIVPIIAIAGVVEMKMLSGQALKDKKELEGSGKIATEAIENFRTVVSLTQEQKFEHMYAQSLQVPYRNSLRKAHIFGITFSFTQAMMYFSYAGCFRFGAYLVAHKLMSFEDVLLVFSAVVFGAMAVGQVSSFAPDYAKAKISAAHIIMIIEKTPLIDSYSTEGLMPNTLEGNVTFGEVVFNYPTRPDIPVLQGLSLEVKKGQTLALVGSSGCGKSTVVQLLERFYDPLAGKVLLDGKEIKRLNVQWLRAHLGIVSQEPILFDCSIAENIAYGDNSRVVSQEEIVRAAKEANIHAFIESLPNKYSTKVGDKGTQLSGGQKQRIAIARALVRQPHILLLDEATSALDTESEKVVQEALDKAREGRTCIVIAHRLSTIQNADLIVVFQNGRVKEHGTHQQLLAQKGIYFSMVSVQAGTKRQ

## CCOC(=O)c1noc2c1C[C@@]1(C)[C@@H](CC[C@]3(C)[C@@H]1CC=C1[C@@H]4CC(C)(C)CC[C@]4(C(=O)O)CC[C@]13C)[C@]2(C)CO
[1]
  viability at 10 µM: 93.9%
[2]
  viability at 10 µM: 92.1%

## CC1(C)CC[C@]2(C(=O)OCc3ccc([N+](=O)[O-])cc3)CC[C@]3(C)C(=CC[C@@H]4[C@@]5(C)Cc6nccnc6[C@@](C)(CO)[C@@H]5CC[C@]43C)[C@@H]2C1
[1]
  viability at 10 µM: 91.9%
[2]
  viability at 10 µM: 29.6%

## CCOC(=O)c1noc2c1C[C@@]1(C)[C@@H](CC[C@]3(C)[C@@H]1CC=C1[C@@H]4CC(C)(C)CC[C@]4(C(=O)OCc4ccccc4)CC[C@]13C)[C@]2(C)CO
[1]
  viability at 10 µM: 102%
[2]
  viability at 10 µM: 94.7%

## CC1(C)CC[C@]2(C(=O)OCc3ccccc3)CC[C@]3(C)C(=CC[C@@H]4[C@@]5(C)Cc6cnoc6[C@@](C)(COC(=O)CCC(=O)N6CCOCC6)[C@@H]5CC[C@]43C)[C@@H]2C1
[1]
  viability at 10 µM: 89.6%
[2]
  viability at 10 µM: 34.1%

## Cc1ccccc1COC(=O)[C@]12CCC(C)(C)C[C@H]1C1=CC[C@@H]3[C@@]4(C)Cc5nccnc5[C@@](C)(CO)[C@@H]4CC[C@@]3(C)[C@]1(C)CC2
[1]
  viability at 10 µM: 99.7%
[2]
  viability at 10 µM: 27.5%

## CC1(C)CC[C@]2(C(=O)OCc3ccccc3)CC[C@]3(C)C(=CC[C@@H]4[C@@]5(C)Cc6cnoc6[C@@](C)(COC(=O)CCC(=O)O)[C@@H]5CC[C@]43C)[C@@H]2C1
[1]
  viability at 10 µM: 34%
[2]
  viability at 10 µM: 16.6%

## CC1(C)CC[C@]2(C(=O)OCc3cccc(Br)c3)CC[C@]3(C)C(=CC[C@@H]4[C@@]5(C)Cc6nccnc6[C@@](C)(CO)[C@@H]5CC[C@]43C)[C@@H]2C1
[1]
  viability at 10 µM: 39.8%
[2]
  viability at 10 µM: 19.6%

## CC1(C)CC[C@]2(C(=O)OCc3ccccc3)CC[C@]3(C)C(=CC[C@@H]4[C@@]5(C)Cc6nccnc6[C@@](C)(CO)[C@@H]5CC[C@]43C)[C@@H]2C1
[2]
  viability at 10 µM: 25.3%

## Cc1cccc(COC(=O)[C@]23CCC(C)(C)C[C@H]2C2=CC[C@@H]4[C@@]5(C)Cc6nccnc6[C@@](C)(CO)[C@@H]5CC[C@@]4(C)[C@]2(C)CC3)c1
[1]
  viability at 10 µM: 124%
[2]
  viability at 10 µM: 32.8%

## CC1(C)CC[C@]2(C(=O)OCc3ccccc3[N+](=O)[O-])CC[C@]3(C)C(=CC[C@@H]4[C@@]5(C)Cc6nccnc6[C@@](C)(CO)[C@@H]5CC[C@]43C)[C@@H]2C1
[1]
  viability at 10 µM: 103%
[2]
  viability at 10 µM: 27.1%

## CC1(C)CC[C@]2(C(=O)OCc3ccc(F)cc3)CC[C@]3(C)C(=CC[C@@H]4[C@@]5(C)Cc6nccnc6[C@@](C)(CO)[C@@H]5CC[C@]43C)[C@@H]2C1
[1]
  viability at 10 µM: 94.9%
[2]
  viability at 10 µM: 83.3%

## CC1(C)CC[C@]2(C(=O)O)CC[C@]3(C)C(=CC[C@@H]4[C@@]5(C)CC[C@H](O)[C@@](C)(CO)[C@@H]5CC[C@]43C)[C@@H]2C1 [HEDERAGENIN]
[2]
  viability at 10 µM: 149%

## CC1(C)CC[C@]2(C(=O)OCc3cccc(Cl)c3)CC[C@]3(C)C(=CC[C@@H]4[C@@]5(C)Cc6nccnc6[C@@](C)(CO)[C@@H]5CC[C@]43C)[C@@H]2C1
[1]
  viability at 10 µM: 92%
[2]
  viability at 10 µM: 30.8%

## CN1CCN(C(=O)CCC(=O)OC[C@]2(C)c3oncc3C[C@@]3(C)[C@H]2CC[C@]2(C)[C@@H]3CC=C3[C@@H]4CC(C)(C)CC[C@]4(C(=O)OCc4ccccc4)CC[C@]32C)CC1
[1]
  viability at 10 µM: 79.7%
[2]
  viability at 10 µM: 32.5%

## CCN1CCN(C(=O)CCC(=O)OC[C@]2(C)c3oncc3C[C@@]3(C)[C@H]2CC[C@]2(C)[C@@H]3CC=C3[C@@H]4CC(C)(C)CC[C@]4(C(=O)OCc4ccccc4)CC[C@]32C)CC1
[3]
  Activity: 14.8%
[4]
  Activity: Active
[5]
  Activity: Active
[1]
  viability at 10 µM: 67.5%
[2]
  viability at 10 µM: 26.5%
[6]
  Activity: Non-Toxic
[7]
  Activity: 56.24%
[8]
  inhibition (INH): Dde

## CC1(C)CC[C@]2(C(=O)OCc3ccc(Br)cc3)CC[C@]3(C)C(=CC[C@@H]4[C@@]5(C)Cc6nccnc6[C@@](C)(CO)[C@@H]5CC[C@]43C)[C@@H]2C1
[1]
  viability at 10 µM: 109%
[2]
  viability at 10 µM: 34.2%

## CC1(C)CC[C@]2(C(=O)OCc3cccc(F)c3)CC[C@]3(C)C(=CC[C@@H]4[C@@]5(C)Cc6nccnc6[C@@](C)(CO)[C@@H]5CC[C@]43C)[C@@H]2C1
[1]
  viability at 10 µM: 110%
[2]
  viability at 10 µM: 35%

## CC1(C)CC[C@]2(C(=O)OCc3ccccc3)CC[C@]3(C)C(=CC[C@@H]4[C@@]5(C)Cc6cnoc6[C@@](C)(COC(=O)CCC(=O)n6cccn6)[C@@H]5CC[C@]43C)[C@@H]2C1
[1]
  viability at 10 µM: 69.6%
[2]
  viability at 10 µM: 63.1%

## CC1(C)CC[C@]2(C(=O)OCc3ccccc3)CC[C@]3(C)C(=CC[C@@H]4[C@@]5(C)Cc6cnoc6[C@@](C)(COC(=O)CCC(=O)N6CCCCC6)[C@@H]5CC[C@]43C)[C@@H]2C1
[1]
  viability at 10 µM: 80.5%
[2]
  viability at 10 µM: 79.2%

## CC1(C)CC[C@]2(C(=O)OCc3ccccc3)CC[C@]3(C)C(=CC[C@@H]4[C@@]5(C)Cc6cnoc6[C@@](C)(CO)[C@@H]5CC[C@]43C)[C@@H]2C1
[1]
  viability at 10 µM: 140%
[2]
  viability at 10 µM: 33.7%

## CC1(C)CC[C@]2(C(=O)OCc3ccccc3)CC[C@]3(C)C(=CC[C@@H]4[C@@]5(C)Cc6cnoc6[C@@](C)(COC(=O)CCC(=O)n6ccnc6)[C@@H]5CC[C@]43C)[C@@H]2C1
[1]
  viability at 10 µM: 96.9%
[2]
  viability at 10 µM: 48.6%

## CC1(C)CC[C@]2(C(=O)OCc3ccccc3)CC[C@]3(C)C(=CC[C@@H]4[C@@]5(C)Cc6cnoc6[C@@](C)(COC(=O)CCC(=O)N6CCCC6)[C@@H]5CC[C@]43C)[C@@H]2C1
[1]
  viability at 10 µM: 99.4%
[2]
  viability at 10 µM: 33.3%

## CC1(C)CC[C@]2(C(=O)OCc3ccccc3F)CC[C@]3(C)C(=CC[C@@H]4[C@@]5(C)Cc6nccnc6[C@@](C)(CO)[C@@H]5CC[C@]43C)[C@@H]2C1
[1]
  viability at 10 µM: 107%
[2]
  viability at 10 µM: 26.7%

## CC(=O)O[C@H]1C(=O)[C@@]2(C)[C@H]([C@H](OC(=O)c3ccccc3)[C@]3(O)C[C@H](OC(=O)[C@H](O)[C@@H](NC(=O)c4ccccc4)c4ccccc4)C(C)=C1C3(C)C)[C@]1(OC(C)=O)CO[C@@H]1C[C@@H]2O [PACLITAXEL]
[9]
  viability at 0.1 µM: 98.7%
[10]
  Activity: 22.63%
